Experimental data: ChEMBL document CHEMBL1155531, “Structure guided design of 5-arylindazole glucocorticoid receptor agonists and antagonists” (J Med Chem, 2010)

Legend:
Glucocorticoid receptor [1] = target: T1, Glucocorticoid receptor (Homo sapiens, UniProt P04150); assay: Activity at GR in human A549 cells by NF-kappaB transrepression assay; assay type: cell-based
T1 sequence (P04150 whole entry): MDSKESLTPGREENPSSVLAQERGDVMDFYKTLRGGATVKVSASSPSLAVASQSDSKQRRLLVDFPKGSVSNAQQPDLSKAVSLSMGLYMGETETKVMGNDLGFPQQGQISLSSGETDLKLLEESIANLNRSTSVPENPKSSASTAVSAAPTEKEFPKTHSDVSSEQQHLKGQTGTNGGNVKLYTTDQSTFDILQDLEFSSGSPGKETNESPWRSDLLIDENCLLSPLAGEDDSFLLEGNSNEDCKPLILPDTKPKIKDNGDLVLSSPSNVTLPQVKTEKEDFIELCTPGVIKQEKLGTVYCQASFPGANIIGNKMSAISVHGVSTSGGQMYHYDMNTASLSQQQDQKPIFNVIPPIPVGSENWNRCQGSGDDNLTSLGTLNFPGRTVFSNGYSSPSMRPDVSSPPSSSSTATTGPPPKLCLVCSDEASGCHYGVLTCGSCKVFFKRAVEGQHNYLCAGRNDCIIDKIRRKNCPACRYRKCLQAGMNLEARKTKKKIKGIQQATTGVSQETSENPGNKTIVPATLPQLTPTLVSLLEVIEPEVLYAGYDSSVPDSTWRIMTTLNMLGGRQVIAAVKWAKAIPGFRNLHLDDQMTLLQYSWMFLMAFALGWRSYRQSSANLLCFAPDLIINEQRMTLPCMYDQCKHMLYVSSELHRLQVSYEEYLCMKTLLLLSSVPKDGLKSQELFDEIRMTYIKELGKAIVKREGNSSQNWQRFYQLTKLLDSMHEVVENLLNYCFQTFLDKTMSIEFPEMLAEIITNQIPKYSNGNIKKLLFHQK

Progesterone receptor = target: T2, Progesterone receptor (Homo sapiens, UniProt P06401); assay: Binding affinity to PR
T2 sequence (P06401 whole entry): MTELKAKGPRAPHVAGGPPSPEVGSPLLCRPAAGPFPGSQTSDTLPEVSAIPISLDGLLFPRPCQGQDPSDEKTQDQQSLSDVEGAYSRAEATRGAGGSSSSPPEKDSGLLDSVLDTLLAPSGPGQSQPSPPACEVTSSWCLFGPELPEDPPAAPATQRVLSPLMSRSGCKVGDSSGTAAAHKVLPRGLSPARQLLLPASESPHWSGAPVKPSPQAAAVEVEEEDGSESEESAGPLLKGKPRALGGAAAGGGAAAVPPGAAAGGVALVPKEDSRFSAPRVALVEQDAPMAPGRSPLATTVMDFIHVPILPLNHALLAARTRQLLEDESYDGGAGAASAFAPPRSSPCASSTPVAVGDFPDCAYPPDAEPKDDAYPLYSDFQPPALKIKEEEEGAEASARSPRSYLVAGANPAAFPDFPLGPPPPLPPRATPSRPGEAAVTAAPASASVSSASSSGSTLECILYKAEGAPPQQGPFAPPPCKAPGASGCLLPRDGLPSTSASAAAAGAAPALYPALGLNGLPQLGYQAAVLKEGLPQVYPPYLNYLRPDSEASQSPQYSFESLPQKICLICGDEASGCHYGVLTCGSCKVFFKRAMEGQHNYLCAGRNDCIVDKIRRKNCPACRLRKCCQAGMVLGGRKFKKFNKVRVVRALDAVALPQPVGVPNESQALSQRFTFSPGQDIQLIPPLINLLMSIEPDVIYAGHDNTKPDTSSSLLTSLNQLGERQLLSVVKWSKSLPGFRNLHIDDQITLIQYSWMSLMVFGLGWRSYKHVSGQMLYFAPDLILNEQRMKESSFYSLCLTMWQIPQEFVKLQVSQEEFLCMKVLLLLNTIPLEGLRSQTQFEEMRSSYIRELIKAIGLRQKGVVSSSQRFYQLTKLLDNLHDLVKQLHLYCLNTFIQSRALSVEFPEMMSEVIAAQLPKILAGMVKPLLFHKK

Androgen receptor = target: T3, Androgen receptor (Homo sapiens, UniProt P10275)
T3 sequence (P10275 whole entry): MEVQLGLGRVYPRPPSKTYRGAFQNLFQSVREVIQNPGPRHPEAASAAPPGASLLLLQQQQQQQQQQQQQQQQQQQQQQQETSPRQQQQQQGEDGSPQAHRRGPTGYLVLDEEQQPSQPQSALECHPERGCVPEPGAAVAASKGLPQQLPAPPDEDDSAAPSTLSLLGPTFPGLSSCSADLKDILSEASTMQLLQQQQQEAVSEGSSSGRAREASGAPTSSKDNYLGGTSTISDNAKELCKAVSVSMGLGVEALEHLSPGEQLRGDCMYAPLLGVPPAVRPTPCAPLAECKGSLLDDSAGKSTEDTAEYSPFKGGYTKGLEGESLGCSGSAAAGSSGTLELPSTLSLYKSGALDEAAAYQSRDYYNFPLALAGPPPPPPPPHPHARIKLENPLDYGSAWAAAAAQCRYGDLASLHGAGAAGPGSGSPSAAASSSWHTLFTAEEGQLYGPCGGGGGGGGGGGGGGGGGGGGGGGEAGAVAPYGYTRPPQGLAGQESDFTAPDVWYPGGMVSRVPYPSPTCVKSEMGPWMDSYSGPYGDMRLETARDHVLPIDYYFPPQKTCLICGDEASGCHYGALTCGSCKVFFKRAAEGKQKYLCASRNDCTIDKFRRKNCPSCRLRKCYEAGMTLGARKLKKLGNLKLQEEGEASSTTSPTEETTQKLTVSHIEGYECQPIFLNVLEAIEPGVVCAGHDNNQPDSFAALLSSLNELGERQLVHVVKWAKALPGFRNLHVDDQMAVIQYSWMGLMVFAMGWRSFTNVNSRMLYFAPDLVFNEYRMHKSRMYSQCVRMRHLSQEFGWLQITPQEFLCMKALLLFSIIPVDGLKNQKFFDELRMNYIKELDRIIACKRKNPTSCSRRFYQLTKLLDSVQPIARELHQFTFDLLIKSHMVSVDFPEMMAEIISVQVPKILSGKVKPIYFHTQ

Glucocorticoid receptor [2] = target: T1, Glucocorticoid receptor; assay: Displacement of fluorescent-labeled Dexamethasone from GR by fluorescent polarization assay
Glucocorticoid receptor [3] = target: T1, Glucocorticoid receptor; assay: Antagonist activity at GR in human A549 cells transfected with luciferase gene linked to MMTV promoter assessed as inhibition of dexamethasone-induced luciferase transactivation activity after 24 hrs; assay type: functional, cell-based

SMILES	IC50 (Glucocorticoid receptor [1])	IC50 (Progesterone receptor)	IC50 (Androgen receptor)	IC50 (Glucocorticoid receptor [2])	IC50 (Glucocorticoid receptor [3])
CC(C)CNS(=O)(=O)c1ccc(-c2ccc3c(cnn3-c3ccc(F)cc3)c2)c(C(F)(F)F)c1	> 10 µM	0.631 µM	6.31 µM	0.0398 µM	3.16 µM
Oc1ccc(-c2ccc3c(cnn3-c3ccc(F)cc3)c2)cc1	> 10 µM	> 10 µM	> 10 µM	0.631 µM	
O=S(=O)(Nc1ccccc1)c1ccc(-c2ccc3c(cnn3-c3ccc(F)cc3)c2)c(C(F)(F)F)c1	> 10 µM	> 10 µM	> 10 µM	0.0251 µM	3.16 µM
Fc1ccc(-n2ncc3cc(-c4cccc(C(F)(F)F)c4)ccc32)cc1	> 10 µM	1.58 µM	> 10 µM	3.16 µM	
CCOc1cccc(-c2ccc3c(cnn3-c3ccc(F)cc3)c2)c1	> 10 µM	> 10 µM	> 10 µM	2.51 µM	
CC(C)NS(=O)(=O)c1ccc(-c2ccc3c(cnn3-c3ccc(F)cc3)c2)c(C(F)(F)F)c1	> 10 µM	3.16 µM	> 10 µM	0.0126 µM	1.26 µM
CCOc1ccccc1-c1ccc2c(cnn2-c2ccc(F)cc2)c1	> 10 µM	> 10 µM	> 10 µM	0.501 µM	
CC(C)c1cc(C(C)C)c(S(=O)(=O)Nc2ccc(-c3ccc4c(cnn4-c4ccc(F)cc4)c3)c(C(F)(F)F)c2)c(C(C)C)c1	> 10 µM	> 10 µM	> 10 µM	0.251 µM	> 10 µM
Fc1ccc(-n2ncc3cc(-c4ccccc4)ccc32)cc1	> 10 µM	> 10 µM	> 10 µM	3.16 µM	
CCNS(=O)(=O)c1ccc(-c2ccc3c(cnn3-c3ccc(F)cc3)c2)c(C(F)(F)F)c1	> 10 µM	1.58 µM	3.16 µM	0.02 µM	2 µM
Cc1ccc(-c2ccc3c(cnn3-c3ccc(F)cc3)c2)cc1	> 10 µM	> 10 µM	> 10 µM	> 10 µM	
CCS(=O)(=O)Nc1ccc(-c2ccc3c(cnn3-c3ccc(F)cc3)c2)c(C(F)(F)F)c1	> 10 µM	> 10 µM	5.01 µM	0.01 µM	2 µM
O=S(=O)(NCCO)c1ccc(-c2ccc3c(cnn3-c3ccc(F)cc3)c2)c(C(F)(F)F)c1	> 10 µM	5.01 µM	10 µM	0.0158 µM	2 µM
CS(=O)(=O)Nc1ccc(-c2ccc3c(cnn3-c3ccc(F)cc3)c2)c(C(F)(F)F)c1	> 10 µM	> 10 µM	5.01 µM	0.01 µM	1.58 µM
CCCNS(=O)(=O)c1ccc(-c2ccc3c(cnn3-c3ccc(F)cc3)c2)c(C(F)(F)F)c1	> 10 µM	0.794 µM	6.31 µM	0.0316 µM	3.16 µM
